From patent US20170143674A1, “Use of Glutaryl Histamine for the Treatment of Respiratory Tract Diseases” (LTD "VALENTA-INTELLEKT", priority 2011, published 2017)

Key:
[1] = test system: acute bronchitis induced by endotracheal administration of lipopolysaccharide; test: acute bronchitis (bronchiolitis/pneumonia) model, endotracheal LPS; format: in vivo, Wistar rats
Excerpt: The therapeutic effectiveness of glutaryl histamine was studied on an experimental model of acute bronchitis. The therapeutic effectiveness of glutaryl histamine was studied on an experimental model of acute bronchitis induced by endotracheal administration of lipopolysaccharide to laboratory Wistar rats through a probe. […] After administration of LPS, from 5 to 7 motions by the syringe plunger was made for better distribution of LPS in the pulmonary tract. After this manipulation, the animals were monitored for 2 hours to reveal complications after the administration.
Dexamethasone in a dose of 5 mg/kg was used a reference medicament.
Histology and morphometry. Respiratory and air pathways were studied on samples taken from the middle third (hilum of the lung) and apexes of the left lung. […] Material for the analysis of the lung histological structure in all animals was taken from the hilum and apex of the lung to study respiratory and air pathways.
The time history of changes in lungs after administration of LPS are shown in FIGS. 1, 2 and 3, wherein the changes are expressed by semi-quantitative scores (intensity of interstitial edema expressed by scores) or by a percentage ratio of the injured part of the lung.

[2] = test system: Staphylococcus aureus (mouse-adapted strain 10); test: animal or person; format: in vivo, mice; details: for Mortality rate (%) / Survival rate (%): tenth day
Procedure: The tested medicament was glutaryl histamine in doses of 15, 30 and 45 mg/kg. Solutions of the tested medicament for oral administration were prepared ex tempore. Levofloxacin (in oral administration) was used as a therapeutic preparation since this substance was the most experimentally studied antibiotic approved in clinical practice many years ago.
Staphylococcus aureus (mouse-adaptedstrain 10) was used as an infectious agent. Mice were infected intravenously.
Firstly, there was determined a lethal dose (LD100) of staphylococcus to be intravenously administered to this line of mice having a certain weight. Fatal cases among mice were registered every day for ten days. The lethal dose was 3×10^8 CFU/mouse. […] For this purpose, mice were housed into cages (10 animals per cage) and infected with a lethal dose of staphylococcus. One hour after each mouse was administered orally levofloxacin in doses of 1, 2, 4, 6, 8, 10, and 12 mg/kg. A group of mice infected with a lethal dose of staphylococcus without the treatment was considered as a control group. Fatal cases among mice were registered every day for ten days.
The next step of the experiment was to study an effect of combined administration of glutaryl histamine and levofloxacin on a model of staphylococcal sepsis in mice.
In the experiment, mice were housed in following groups (10 animals per cage):
Glutaryl histamine was administered orally in the corresponding doses to the mice of groups 3, 4, 5, 6, 7, and 8 for 5 days. Five day after, all groups of mice were intravenously administered with 0.2 ml of Staphylococcus aureus in the lethal dose. […] After infection and administration of levofloxacin, glutaryl histamine was administered to mice of groups 3-8 for additional 5 days. During the experiment, the animals were observed every day, and fatal cases were registered (see Table 13).

Compound: O=C(O)CCCC(=O)NCCc1c[nH]cn1 [glutaryl histamine]
- Peribronchial infiltration and interstitial edema (lung sections) ([1]; 27 mg/kg, 24 hours after administration of LPS): Reduction
- Peri- and intrabronchial infiltration and interstitial edema (lung sections) ([1]; 27 mg/kg, 72 hours after administration of LPS): Reduction
- interstitial edema ([1]; 27 mg/kg, first and third days, compared with the control group): reduction
- alveolar infiltration ([1]; 27 mg/kg, starting from the second day up to the third day): significant reduction
- Hemorrhagic symptoms in lungs ([1]; all time points, each tested dose): significantly weaker compared to the control group and the group of dexamethasone
- died/survived animals ([2]; day 1, glutaryl histamine 15 mg/kg): 0/10
- died/survived animals ([2]; day 1, glutaryl histamine 30 mg/kg): 0/10
- died/survived animals ([2]; day 1, glutaryl histamine 45 mg/kg): 0/10
- died/survived animals ([2]; day 2, glutaryl histamine 15 mg/kg): 0/10
- died/survived animals ([2]; day 2, glutaryl histamine 30 mg/kg): 0/10
- died/survived animals ([2]; day 2, glutaryl histamine 45 mg/kg): 0/10
- died/survived animals ([2]; day 3, glutaryl histamine 15 mg/kg): 0/10
- died/survived animals ([2]; day 3, glutaryl histamine 30 mg/kg): 0/10
- died/survived animals ([2]; day 3, glutaryl histamine 45 mg/kg): 1/9
- died/survived animals ([2]; day 4, glutaryl histamine 15 mg/kg): 1/9
- died/survived animals ([2]; day 4, glutaryl histamine 30 mg/kg): 1/9
- died/survived animals ([2]; day 4, glutaryl histamine 45 mg/kg): 2/8
- died/survived animals ([2]; day 5, glutaryl histamine 15 mg/kg): 2/8
- died/survived animals ([2]; day 5, glutaryl histamine 30 mg/kg): 3/7
- died/survived animals ([2]; day 5, glutaryl histamine 45 mg/kg): 4/6
- died/survived animals ([2]; day 6, glutaryl histamine 15 mg/kg): 3/7
- died/survived animals ([2]; day 6, glutaryl histamine 30 mg/kg): 4/6
- died/survived animals ([2]; day 6, glutaryl histamine 45 mg/kg): 5/5
- died/survived animals ([2]; day 7, glutaryl histamine 15 mg/kg): 4/6
- died/survived animals ([2]; day 7, glutaryl histamine 30 mg/kg): 6/4
- died/survived animals ([2]; day 7, glutaryl histamine 45 mg/kg): 7/3
- died/survived animals ([2]; day 8, glutaryl histamine 15 mg/kg): 6/4
- died/survived animals ([2]; day 8, glutaryl histamine 30 mg/kg): 7/3
- died/survived animals ([2]; day 8, glutaryl histamine 45 mg/kg): 8/2
- died/survived animals ([2]; day 9, glutaryl histamine 15 mg/kg): 7/3
- died/survived animals ([2]; day 9, glutaryl histamine 30 mg/kg): 7/3
- died/survived animals ([2]; day 9, glutaryl histamine 45 mg/kg): 8/2
- died/survived animals ([2]; day 10, glutaryl histamine 15 mg/kg): 8/2
- died/survived animals ([2]; day 10, glutaryl histamine 30 mg/kg): 7/3
- died/survived animals ([2]; day 10, glutaryl histamine 45 mg/kg): 8/2
- Mortality rate (%) ([2]; glutaryl histamine 15 mg/kg): 80%
- Survival rate (%) ([2]; glutaryl histamine 15 mg/kg): 20%
- Mortality rate (%) ([2]; glutaryl histamine 30 mg/kg): 70%
- Survival rate (%) ([2]; glutaryl histamine 30 mg/kg): 30%
- Mortality rate (%) ([2]; glutaryl histamine 45 mg/kg): 80%
- Survival rate (%) ([2]; glutaryl histamine 45 mg/kg): 20%
